Results: patent US20080188761A1, “ECG-BASED IDENTIFICATION OF IMPAIRED IKR KINETICS” (priority 2006, published 2008)
Like-named read-outs stand apart in the source and are kept apart here.

Test system: healthy individuals
Conditions: for RR: healthy subjects, lead II, mean ± SD
Procedure: Our investigation is based on the analysis of 12-lead digital Holter recordings in: 49 LQT1 carriers, 25 LQT2 carriers, 37 healthy individuals off drugs and on 160 mg of sotalol, and 21 of them also on 320 mg of sotalol. The Holter recordings were used to investigate repolarization parameters and their heart rate dependency.
The study populations consisted of: 49 LQT1 carriers, 25 LQT2 carriers, and 37 healthy individuals who participated in a study focused on effect of sotalol on ECG parameters of repolarization. The group of LQTS patients included individuals with genetically identified KCNH2 (HERG) and KCNQ1 mutations, we investigated these two types of mutations since they are associated with two different ion-kinetics dysfunctions of potassium currents: the KCNH2 have been linked to a reduction of the rapidly activating repolarizing potassium current (IKr) and the KCNQ1 to the slowly activating ion current IKs. We analyzed the patients in whom digital 24-hour Holter recordings were available in order to be able to investigate heart rate dependency of their repolarization morphology. The protocol of this study included 3 days of Holter recordings: at baseline, on single 160 mg dose of sotalol and a 320 mg dose of sotalol.
All the Holter ECGs were recorded using the same type of equipment: 24-hour Holter recorder H12 (H-12 recorder, Mortara Instrument, Milwaukee, Wis.) providing digital ECG signal at a sampling frequency of 180 Hz and with 12 bit amplitude resolution (6.25 pv). In this recording, 8 original leads are recorded and the remaining 4 leads (augmented limb leads aVR, aVL, aVF and lead III) are computed. Beat classification was performed using the HScribe scanning software (HScribe, Mortara Instrument, Milwaukee, Wi.) and manually reviewed and adjusted when necessary. The information about cardiac beat annotation was exported in XML format and integrated into the COMPAS software (COMPhrensive Analysis of the repolarization Segment software, University of Rochester Medical Center Rochester, N.Y.) for the analysis of repolarization morphology.
To ensure stability of repolarization and increase signal-to-noise ratio, we adopted the following strategy: the Holter recordings were divided in sections of 10 continuous sinus beats. Only the sections preceded by stable heart rate within the previous 5 minutes were selected for the analysis. Heart rate stability required having less than 300 ms changes between continuous RR values within the 5 minutes. […] The QT interval and T-amplitude measurements were based on median beats computed from each so-called “stable representative beats”.
Based on a technique ensuring an appropriate stability of the modeling of the relationship between repolarization measurements and the RR intervals disclosed in a publication by Couderc J P, Xiaojuan X, Zerba W, Moss A J, entitled, “Assessment of the Stability of the Individual-Based Correction of QT Interval for Heart Rate”, published in the Ann. Noninvasive. Electrocardiol. 2005 January; 10(1):25-34, and herein officially incorporated by reference, we investigated two electrocardiographic measurements: the QT interval and the amplitude of the T-wave and their relationship with RR intervals.
The QT interval and T amplitude were measured on the stable representative beats from lead II. The end of T-wave was identified based on the tangent method, the crossing point between the tangent and the isoelectric line identifying the end of the T-wave, although other methods of measuring the QT interval could be used in other embodiments. The amplitude of the T-wave was measured at the maximum value of the T-wave signal in absolute value. For negative T-waves, the sign of the amplitude was conserved. For biphasic T-waves, we measured the highest portion of the signal in absolute value. No manual adjustments of measurements were performed.

- Dose dependence of T-wave amplitude/RR slope (in vivo): dose-dependent effect on the slope
- Mean levels of T wave amplitude off vs on sotalol (in vivo): not significantly different
SMILES: CC(C)NCC(O)c1ccc(NS(C)(=O)=O)cc1 (stereo not drawn) [sotalol]
- RR (high dose sotalol (320 mg), n = 21, diurnal period): 947 ± 70 ms
- RR (low dose sotalol (160 mg), n = 37, diurnal period): 893 ± 63 ms
- Dose dependence of QT/RR slope (in vivo): not associated with sotalol dose-dependent changes
- Dose-dependent effect on QT interval duration, RR bin analysis (in vivo): this trend did not reach statistical significance
- QT interval duration, RR bin analysis, vs healthy individuals (in vivo): significant QT interval prolongation
- QTc with increasing dose of sotalol (in vivo): progressively prolonged
- T-wave amplitude across RR bins (in vivo): clear dose-dependent effect of the drug on T-wave amplitude exacerbated at low heart rate
